Assay results reported in PubChem BioAssay AID1117324 (Cheminformatics & Chemogenomics Research Group (CCRG), …, 2015).
pIC50: −log10 of the molar value. The source made the active and inactive calls. No rule for the calls is given here. *1 amine or outer side, *2 acyl side, *3 side chain or, on linkers, in order; H or OH if unused. Where a SMILES comes first, the peptide text is derived from it. Bridges are numbered along the chain shown (N, C = ends). Roman numbers before positions name the chains, in order. [ ]: non-standard residue; d: D form. Actinocin(9to1) = Cc1c2oc3c(C)ccc(C(=O)[*:1])c3nc-2c(C(=O)[*:2])c(N)c1=O; NMeV = CN[C@H](C(=O)O)C(C)C; Sar = CNCC(=O)O

What follows are compounds tested on VEGF-stimulated ADSC/ECFC co-culture, nuclear area imaging (assay: nuclear area loss in endothelial-stromal co-culture, dose response, cell-based, VEGF stimulation, IC50 (AID 1117324)).
With O=c1c(-c2ccc(O)cc2)coc2cc(O)cc(O)c12 the IC50 was > 10 µM (inactive). For CC(=O)NC(=O)c1ccccc1O, the IC50 was > 10 µM (inactive). O=C1C(=O)c2ccccc2C(O)=C1C1CCC(c2ccc(Cl)cc2)CC1 (centres undefined) was tested, and the IC50 was > 10 µM (inactive). For OCCN1CCN(CCCN2c3ccccc3Sc3ccc(C(F)(F)F)cc32)CC1, the IC50 was > 10 µM (inactive). With CN(C)c1ccc(C(=C2C=CC(=[N+](C)C)C=C2)c2ccccc2)cc1 the pIC50 was 5.76. For S=C=Nc1ccc(N=C=S)cc1, the IC50 was > 10 µM (inactive). For CCC1=C[C@@H]2CN(C1)Cc1c([nH]c3ccccc13)[C@@](C(=O)OC)(c1cc3c(cc1OC)N(C)[C@H]1[C@@](O)(C(=O)OC)[C@H](OC(C)=O)[C@]4(CC)C=CCN5CC[C@]31[C@@H]54)C2, the IC50 was > 10 µM (inactive). With ClC1=C(Cl)C2(Cl)C(CBr)CC1(Cl)C2(Cl)Cl (centres undefined) the IC50 was 9.97 µM (inactive). In the case of COC(=O)Nc1nc2ccc(S(=O)c3ccccc3)cc2[nH]1 (centres undefined), the IC50 was > 10 µM (inactive). C[C@@H](NCCCc1cccc(C(F)(F)F)c1)c1cccc2ccccc12 was tested, and the IC50 was > 10 µM (inactive). CO[C@@H]1[C@@H](OC)[C@H](C)[C@@](O)(CC(=O)O)O[C@H]1[C@H](C)[C@H]1O[C@@]2(CC[C@@](C)([C@H]3CC[C@@](C)([C@@H]4O[C@@H]([C@H]5O[C@](C)(O)[C@H](C)C[C@@H]5C)C[C@@H]4OC4C[C@H](OC)[C@@H](OC)[C@H](C)O4)O3)O2)C[C@H](O)[C@H]1C (some centres undefined) gave a pIC50 of 5.59. For CCCCC[C@@H](O)CC[C@H]1[C@@H]2Cc3cccc(OCC(=O)O)c3C[C@@H]2C[C@@H]1O, the IC50 was > 10 µM (inactive). With CC[C@]1(O)C[C@@H]2CN(CCc3c([nH]c4ccccc34)[C@@](C(=O)OC)(c3cc4c(cc3OC)N(C)[C@H]3[C@@](O)(C(=O)OC)[C@H](OC(C)=O)[C@]5(CC)C=CCN6CC[C@]43[C@@H]65)C2)C1 the IC50 was > 10 µM (inactive). CCCSc1ccc2nc(NC(=O)OC)[nH]c2c1 was tested, and the IC50 was > 10 µM (inactive). For c1ccc2c(c1)Sc1ccccc1N2CC1CN2CCC1CC2 (centres undefined), the IC50 was > 10 µM (inactive). For CC(=O)Oc1cccc2c1C(=O)c1c(OC(C)=O)cc(C(=O)O)cc1C2=O, the IC50 was > 10 µM (inactive). In the case of CCN(CC)CCNC(=O)c1c(C)[nH]c(/C=C2\C(=O)Nc3ccc(F)cc32)c1C, the IC50 was > 10 µM (inactive). For C[C@H]1O[C@@H](O[C@H]2[C@@H](O)C[C@H](O[C@H]3[C@@H](O)C[C@H](O[C@H]4CC[C@@]5(C)[C@H](CC[C@@H]6[C@@H]5CC[C@]5(C)[C@@H](C7=CC(=O)OC7)CC[C@]65O)C4)O[C@@H]3C)O[C@@H]2C)C[C@H](O)[C@@H]1O, the pIC50 was 6.99. OC[C@H]1O[C@@H](n2cnc3c(=S)nc[nH]c32)[C@H](O)[C@@H]1O was tested, and the IC50 was > 10 µM (inactive). With CCCCN(CCCC)CCC(O)c1cc2c(Cl)cc(Cl)cc2c2cc(C(F)(F)F)ccc12 (centres undefined) the IC50 was > 10 µM (inactive). For O=C1c2ccccc2C(=O)C1C(=O)C(c1ccccc1)c1ccccc1, the IC50 was > 10 µM (inactive). In the case of CCN[C@@H](C)Cc1cccc(C(F)(F)F)c1, the IC50 was > 10 µM (inactive). For Oc1ccc(Cl)cc1Sc1cc(Cl)ccc1O, the IC50 was 8.69 µM (inactive). In the case of O=C1OC(OC(=O)c2cccnc2Nc2cccc(C(F)(F)F)c2)c2ccccc21 (centres undefined), the IC50 was > 10 µM (inactive). For CC(=O)Oc1ccc(C2(c3ccc(OC(C)=O)cc3)Oc3ccccc3NC2=O)cc1, the IC50 was > 10 µM (inactive). With CCCCCCCC(=O)OCC(COC(=O)CCCCCCC)OC(=O)CCCCCCC the IC50 was > 10 µM (inactive). COc1ccc(-c2ccc3cc(C(=O)O)ccc3c2)cc1C12CC3CC(CC(C3)C1)C2 was tested, and the IC50 was > 10 µM (inactive). COc1cccc2c1C(=O)c1c(O)c3c(c(O)c1C2=O)C[C@@](O)(C(=O)CO)CC3OC1CC(N2CCOC(OC)C2)C(O)C(C)O1 (some centres undefined) gave a pIC50 of 7.35. With O=C(O)CCCc1ccc(N(CCCl)CCCl)cc1 the IC50 was > 10 µM (inactive). With COc1cc2nc(N3CCN(C(=O)C4COc5ccccc5O4)CC3)nc(N)c2cc1OC (centres undefined) the IC50 was > 10 µM (inactive). With CC[C@]1(O)CC[C@H]2[C@@H]3CCC4=CCCC[C@@H]4[C@H]3CC[C@@]21C the IC50 was > 10 µM (inactive). With CCCCCCCC/C=C\CCCCCCCCN the IC50 was 9.13 µM (inactive). With Cc1cccc(C)c1NC(=O)CC12CCCN1CCC2 the IC50 was > 10 µM (inactive). Compound Cc1c2oc3c(C)ccc(C(=O)N[C@@H]4C(=O)N[C@H](C(C)C)C(=O)N5CCC[C@H]5C(=O)N(C)CC(=O)N(C)[C@@H](C(C)C)C(=O)O[C@@H]4C)c3nc-2c(C(=O)N[C@@H]2C(=O)N[C@H](C(C)C)C(=O)N3CCC[C@H]3C(=O)N(C)CC(=O)N(C)[C@@H](C(C)C)C(=O)O[C@@H]2C)c(N)c1=O (I: T[dV]P[Sar][NMeV] / II: T[dV]P[Sar][NMeV]; ester I:1-I:C, II:1-II:C; linker I:N-II:N via Actinocin(9to1)) has a pIC50 of 7.39. With O=C(c1ccc(F)cc1)C1CCN(CCn2c(=O)[nH]c3ccccc3c2=O)CC1 the IC50 was > 10 µM (inactive). In the case of O[C@@H](c1cc(C(F)(F)F)nc2c(C(F)(F)F)cccc12)[C@H]1CCCCN1, the IC50 was 8.61 µM (inactive). For CCCCCCCCCCCCCCCCCCCCCC(=O)Nc1ccn([C@@H]2O[C@H](CO)[C@@H](O)[C@H]2O)c(=O)n1, the IC50 was > 10 µM (inactive). For CCCOC(=O)c1cc(O)c(O)c(O)c1, the IC50 was > 10 µM (inactive). C=CC(C)(O)CCC=C(C)CCC=C(C)C (centres undefined) was tested, and the IC50 was > 10 µM (inactive). CCc1oc2ccccc2c1C(=O)c1cc(Br)c(O)c(Br)c1 was tested, and the IC50 was > 10 µM (inactive). CC12CCC(CC1)C(C)(C)O2 was tested, and the IC50 was > 10 µM (inactive). CCOC(=O)C=C(C)C=CC[C@@H](C)CCCC(C)C was tested, and the IC50 was > 10 µM (inactive). CCCCCCCCCCCCNCCNCCNCC(=O)O was tested, and the IC50 was > 10 µM (inactive). With CCCCCCC[N+](CC)(CC)CCCCc1ccc(Cl)cc1 the IC50 was > 10 µM (inactive).
